Results published in US4156724A, “N-acylamino-alpha-arylacetamido cephalosporins and antibacterial compositions and methods containing them” (Sumitomo Chemical Company, Limited, priority 1974, dated 1979).
≈ marks a conversion by molar mass, not a printed value.

Experiments:
Format in all cases: cell-based
[1] = system: Staphylococcus aureus 209 P; assay: Minimum Inhibitory Concentration, Staphylococcus aureus 209 P; settings: Staphylococcus aureus 209 P; for MIC: read-out: Minimum Inhibitory Concentration
Procedure: (§1) anti-microbial activity tests were carried out on the compounds obtained in the Examples.

[2] = system: Staphylococcus aureus FS 289; assay: Minimum Inhibitory Concentration, Staphylococcus aureus FS 289; settings: Staphylococcus aureus FS 289, strain resistant to penicillin; for MIC: FS289, read-out: Minimum Inhibitory Concentration
Procedure: as §1
*Staphylococcus aureus FS 289: strain resistant to penicillin

Escherichia coli NIHJ = assay: Minimum Inhibitory Concentration, Escherichia coli NIHJ; settings: Escherichia coli NIHJ; for MIC: read-out: Minimum Inhibitory Concentration
Procedure: as §1

[3] = system: Klebsiella pneumoniae 602; assay: Minimum Inhibitory Concentration, Klebsiella pneumoniae 602; settings: for MIC: Klebsiella pneumoniae, 602, Klebsiella pneumoniae 602, read-out: Minimum Inhibitory Concentration
Procedure: as §1

Proteus vulgaris HX 19 = assay: Minimum Inhibitory Concentration, Proteus vulgaris HX 19; settings: Proteus vulgaris HX 19; for MIC: HX19, read-out: Minimum Inhibitory Concentration
Procedure: as §1

[4] = system: Pseudomonas aeruginosa 104; assay: Minimum Inhibitory Concentration, Pseudomonas aeruginosa 104; settings: Pseudomonas aeruginosa 104; for MIC: read-out: Minimum Inhibitory Concentration
Procedure: as §1

Serratia No. 72 = assay: Minimum Inhibitory Concentration, Serratia No. 72
Procedure: as §1

[5] = system: Enterobacter aerogeneus No. 75; assay: Minimum Inhibitory Concentration, Enterobacter aerogeneus No. 75; settings: Enterobacter aerogeneus No. 75; for MIC: read-out: Minimum Inhibitory Concentration
Procedure: as §1

MIC [1] [µg/mL]	MIC [2] [µg/mL]	MIC (Escherichia coli NIHJ) [µg/mL]	MIC [3] [µg/mL]	MIC (Proteus vulgaris HX 19) [µg/mL]	MIC [4] [µg/mL]	MIC (Serratia No. 72) [µg/mL]	MIC [5] [µg/mL]	Compound	Minimum Inhibitory Concentration [1] [µg/mL]	Minimum Inhibitory Concentration [2] [µg/mL]	Minimum Inhibitory Concentration (Escherichia coli NIHJ) [µg/mL]	Minimum Inhibitory Concentration ([3]; Klebsiella pneumoniae 602) [µg/mL]	Minimum Inhibitory Concentration (Proteus vulgaris HX 19) [µg/mL]	Minimum Inhibitory Concentration [4] [µg/mL]	Minimum Inhibitory Concentration (Serratia No. 72) [µg/mL]	Minimum Inhibitory Concentration [5] [µg/mL]
								CC(=O)OCC1=C(C(=O)[O-])N2C(=O)C(NC(=O)C(NC(=O)c3cnc4cccnc4c3O)c3ccc(O)c(F)c3)C2SC1.[Na+] (centres unmarked) [Example 145]	0.78	6.25	3.13	3.13	0.39	6.25	100	12.5
0.78 (≈ 1.12 µM)	12.5 (≈ 17.9 µM)	1.56 (≈ 2.24 µM)	3.13 (≈ 4.49 µM)	1.56 (≈ 2.24 µM)	3.13 (≈ 4.49 µM)	25 (≈ 35.9 µM)	6.25 (≈ 8.97 µM)	CSc1cnc2c(O)c(C(=O)N[C@@H](C(=O)NC3C(=O)N4C(C(=O)O)=C(CSc5nnnn5C)CSC34)c3ccc(O)cc3)cnc2n1 (some centres unmarked) [Example 146]								
1.56 (≈ 2.17 µM)	12.5 (≈ 17.4 µM)	3.13 (≈ 4.35 µM)	3.13 (≈ 4.35 µM)	1.56 (≈ 2.17 µM)	3.13 (≈ 4.35 µM)	25 (≈ 34.7 µM)	6.25 (≈ 8.68 µM)	Cn1nnnc1SCC1=C(C(=O)O)N2C(=O)C(NC(=O)[C@H](NC(=O)c3cnc4nc(N5CCCC5)cnc4c3O)c3ccc(O)cc3)C2SC1 (some centres unmarked) [Example 147]								
1.56 (≈ 2.25 µM)	12.5 (≈ 18 µM)	3.13 (≈ 4.51 µM)	3.13 (≈ 4.51 µM)	1.56 (≈ 2.25 µM)	3.13 (≈ 4.51 µM)	25 (≈ 36 µM)	6.25 (≈ 9 µM)	Cc1nnc(SCC2=C(C(=O)O)N3C(=O)C(NC(=O)[C@H](NC(=O)c4cnc5nc(C)c(C)nc5c4O)c4ccc(O)cc4)C3SC2)s1 (some centres unmarked) [Example 148]								
0.78 (≈ 1.12 µM)	6.25 (≈ 8.98 µM)	3.13 (≈ 4.5 µM)	3.13 (≈ 4.5 µM)	0.39 (≈ 0.56 µM)	6.25 (≈ 8.98 µM)	25 (≈ 35.9 µM)	6.25 (≈ 8.98 µM)	O=C(O)C1=C(CSc2ccc(O)nn2)CSC2C(NC(=O)[C@H](NC(=O)c3cnc4cccnc4c3O)c3ccc(O)c(Cl)c3)C(=O)N12 (some centres unmarked) [Example 149]								
0.78 (≈ 1.14 µM)	6.25 (≈ 9.17 µM)	3.13 (≈ 4.59 µM)	1.56 (≈ 2.29 µM)	0.2 (≈ 0.293 µM)	3.13 (≈ 4.59 µM)	12.5 (≈ 18.3 µM)	6.25 (≈ 9.17 µM)	O=C(O)C1=C(CSc2nnc(CO)s2)CSC2C(NC(=O)[C@H](NC(=O)c3cnc4cccnc4c3O)c3ccc(O)cc3)C(=O)N12 (some centres unmarked) [Example 150]								
0.78 (≈ 1.07 µM)	6.25 (≈ 8.58 µM)	1.56 (≈ 2.14 µM)	1.56 (≈ 2.14 µM)	0.39 (≈ 0.535 µM)	6.25 (≈ 8.58 µM)	12.5 (≈ 17.2 µM)	6.25 (≈ 8.58 µM)	CN(C)c1ccc2ncc(C(=O)N[C@@H](C(=O)NC3C(=O)N4C(C(=O)O)=C(CSc5n[nH]c(=O)s5)CSC34)c3ccc(O)c(F)c3)c(O)c2n1 (some centres unmarked) [Example 151]								
0.78 (≈ 1.15 µM)	6.25 (≈ 9.18 µM)	3.13 (≈ 4.6 µM)	1.56 (≈ 2.29 µM)	0.2 (≈ 0.294 µM)	3.13 (≈ 4.6 µM)	12.5 (≈ 18.4 µM)	6.25 (≈ 9.18 µM)	CNc1nnc(SCC2=C(C(=O)O)N3C(=O)C(NC(=O)[C@H](NC(=O)c4cnc5cccnc5c4O)c4ccc(O)cc4)C3SC2)s1 (some centres unmarked) [Example 152]								
0.78 (≈ 1.07 µM)	6.25 (≈ 8.6 µM)	3.13 (≈ 4.31 µM)	3.13 (≈ 4.31 µM)	0.39 (≈ 0.537 µM)	6.25 (≈ 8.6 µM)	25 (≈ 34.4 µM)	6.25 (≈ 8.6 µM)	CSc1ccc2ncc(C(=O)N[C@@H](C(=O)NC3C(=O)N4C(C(=O)O)=C(CSc5nnc(CN)s5)CSC34)c3ccc(O)cc3)c(O)c2n1 (some centres unmarked) [Example 153]								
0.78 (≈ 1.2 µM)	12.5 (≈ 19.2 µM)	3.13 (≈ 4.81 µM)	6.25 (≈ 9.61 µM)	0.39 (≈ 0.599 µM)	3.13 (≈ 4.81 µM)	12.5 (≈ 19.2 µM)	6.25 (≈ 9.61 µM)	Cn1nnnc1SCC1=C(C(=O)O)N2C(=O)C(NC(=O)[C@H](NC(=O)c3cnc4cncnc4c3O)c3ccc(O)cc3)C2SC1 (some centres unmarked) [Example 154]								
0.78 (≈ 1.14 µM)	12.5 (≈ 18.3 µM)	3.13 (≈ 4.58 µM)	6.25 (≈ 9.15 µM)	0.78 (≈ 1.14 µM)	3.13 (≈ 4.58 µM)	12.5 (≈ 18.3 µM)	6.25 (≈ 9.15 µM)	O=C(O)C1=C(CSc2nnc(CO)s2)CSC2C(NC(=O)C(NC(=O)c3cnc4cncnc4c3O)c3cccc(O)c3)C(=O)N12 (centres unmarked) [Example 155]								
1.56 (≈ 2.15 µM)	12.5 (≈ 17.2 µM)	6.25 (≈ 8.61 µM)	6.25 (≈ 8.61 µM)	0.78 (≈ 1.07 µM)	6.25 (≈ 8.61 µM)	50 (≈ 68.9 µM)	12.5 (≈ 17.2 µM)	Cc1nnc(SCC2=C(C(=O)O)N3C(=O)C(NC(=O)C(NC(=O)c4cnc5nc(N(C)C)ncc5c4O)c4ccc(O)c(O)c4)C3SC2)s1 (centres unmarked) [Example 156]								
1.56 (≈ 2.19 µM)	12.5 (≈ 17.6 µM)	3.13 (≈ 4.4 µM)	3.13 (≈ 4.4 µM)	0.2 (≈ 0.281 µM)	6.25 (≈ 8.78 µM)	25 (≈ 35.1 µM)	6.25 (≈ 8.78 µM)	COc1cc(C(NC(=O)c2cnc3cccnc3c2O)C(=O)NC2C(=O)N3C(C(=O)O)=C(CSc4nnc(CO)s4)CSC23)ccc1O (centres unmarked) [Example 157]								
